Data on one compound can be found in patent US11191790B2, “Biologically pure Faecalibacterium butyricigenerans strain, composition including the same and method for treating ulcerative colitis” (BGI SHENZHEN, priority 2016, dated 2021).

For the assay, the system named is UC modeled mice (DSS-induced ulcerative colitis). As to the kind of experiment: In vivo experiment in DSS-induced UC modeled mice. Details: species or system C57bl/6 mice. As to the method: With administration of AF52-21, saline or a positive drug, the therapeutic effect of Faecalibacterium butyricigenerans AF52-21 on the UC modeled mice was evaluated by observing body weight, mortality, fecal traits, occult/visual blood in stool, colon length, disease and activity index (DAI) and pathological parameters.
8 week-old C57bl/6 mice weighted 21 g±1 g in SPF grade were adaptively fed for one week. Then, 2% sodium dextran sulfate (DSS) was administered to the mice for 7 days to induce the UC modeled mice.
A total of 48 mice were randomly divided into four groups, with 12 mice in each group. The groups were as follows:
Group I: control group—normal mice without DSS induction;
Group II: UC modeled group—saline gavage after DSS induction;
Group III: UC treatment group—AF52-21 treatment after DSS induction;
Group IV: UC treatment group—positive drug (salicylazosulfapyridine, SASP) treatment after DSS induction.
UC modeled group: gavage with saline (0.85% NaCl).
AF52-21-treated group: administration with cultured AF52-21 in a stationary phase in a bacterial concentration of about 10^8 cfu/ml.
SASP-treated group: administration with 0.02 g/mL of aqueous SASP solution.
The mice in all groups were daily observed for food intake, spontaneous activities, body weight, fecal traits and occult/visual blood in stool. After DSS induction for 7 days, mice were treated according to the administration scheme in 4.3 for 2 weeks by daily gavage of 200 μL/mouse. After 14 days, mice in all groups were sacrificed for blood collection, colon collection for photographing and length-measuring, and collection of other organs for weighing. The colon was then stored in paraformaldehyde in a […] refrigerator.
The mice were given individual scores according to body weight, fecal traits and occult/visual blood in stool. The scoring criteria are as follows (Table 4).
The DAI is scored as the sum of the scores for body weight, fecal traits and occult blood/visual blood in stool.

[1] abbreviates: daily gavage 200 μL/mouse, AF52-21 about 10^8 cfu/ml, SASP 0.02 g/mL.
Where [2] appears, read: ratio of organ weight to body weight, x ± SD, after 14 days of treatment.
[3] abbreviates: sum of scores for body weight, fecal traits, occult/visual blood in stool, daily gavage 200 μL/mouse.

Turning to `O=C(O)c1cc(/N=N/c2ccc(S(=O)(=O)Nc3ccccn3)cc2)ccc1O` [SASP, salicylazosulfapyridine], the “Mice died during the entire experiment” value (12 mice in each group, 5 mice died in the UC modeled group) stood at 2 mice. The “Body weight, DSS induction at Day 7” value (UC modeled mice, after 7 days 2% DSS, before treatment) amounted to 28.52 ± 3.12 g. Besides, where the note is “UC modeled mice, before DSS induction and before treatment (baseline of the group)”, the “Body weight, DSS induction at Day 0” value amounted to 30.12 ± 2.25 g. Under “after 14 days of treatment, UC modeled group 6.11 ± 0.90”, the colon length is 6.54 ± 0.71. Moreover, under setting [1], the “Body weight, Treatment at Day 1” value is listed as 26.51 ± 3.31 g; the “Body weight, Treatment at Day 7” value is listed as 27.60 ± 3.46 g; the “Body weight, Treatment at Day 14” value is given as 29.98 ± 3.32 g. Further, the Weight gain/decrease rate (decrease rate of body weight, UC modeled group 8 ± 0.8% decrease) was 0.4 ± 0.2% (decrease rate). In addition, for the setting “histological sections of mouse intestinal mucosa, FIG. 5, compared with the UC modeled group”, the Colon histopathology entry is “reduced thickness of colon wall; and reduced number of inflammatory cells infiltrating in submucosa”. Further, under setting [2], the Colon index is listed as 9.88 ± 2.76 mg/g, the Kidney index worked out at 13.24 ± 1.74 mg/g, the Liver index is given as 41.56 ± 6.04 mg/g and the Spleen index is listed as 6.24 ± 3.71 mg/g. The Thymus index under setting [2] is 1.10 ± 0.39 mg/g. The “DAI score, DSS induction for 7 days” value (sum of scores for body weight, fecal traits, occult/visual blood in stool, before treatment) turned out to be 7.70 ± 2.85. Under setting [3], the “DAI score, Treatment for 7 days” value worked out at 5.89 ± 2.21 and the “DAI score, Treatment for 14 days” value is recorded as 3.98 ± 1.38.
